Test results reported in ChEMBL document CHEMBL5465560, “Selectivity Literature for EUbOPEN Chemogenomic Library” (2024).

How the values were obtained:
[1] = target: T1, Serine/threonine-protein kinase TAO3 (Homo sapiens) (UniProt Q9H2K8); assay: Selectivity interaction (ProQinase) EUB0000171b TAOK3
T1 sequence (whole entry): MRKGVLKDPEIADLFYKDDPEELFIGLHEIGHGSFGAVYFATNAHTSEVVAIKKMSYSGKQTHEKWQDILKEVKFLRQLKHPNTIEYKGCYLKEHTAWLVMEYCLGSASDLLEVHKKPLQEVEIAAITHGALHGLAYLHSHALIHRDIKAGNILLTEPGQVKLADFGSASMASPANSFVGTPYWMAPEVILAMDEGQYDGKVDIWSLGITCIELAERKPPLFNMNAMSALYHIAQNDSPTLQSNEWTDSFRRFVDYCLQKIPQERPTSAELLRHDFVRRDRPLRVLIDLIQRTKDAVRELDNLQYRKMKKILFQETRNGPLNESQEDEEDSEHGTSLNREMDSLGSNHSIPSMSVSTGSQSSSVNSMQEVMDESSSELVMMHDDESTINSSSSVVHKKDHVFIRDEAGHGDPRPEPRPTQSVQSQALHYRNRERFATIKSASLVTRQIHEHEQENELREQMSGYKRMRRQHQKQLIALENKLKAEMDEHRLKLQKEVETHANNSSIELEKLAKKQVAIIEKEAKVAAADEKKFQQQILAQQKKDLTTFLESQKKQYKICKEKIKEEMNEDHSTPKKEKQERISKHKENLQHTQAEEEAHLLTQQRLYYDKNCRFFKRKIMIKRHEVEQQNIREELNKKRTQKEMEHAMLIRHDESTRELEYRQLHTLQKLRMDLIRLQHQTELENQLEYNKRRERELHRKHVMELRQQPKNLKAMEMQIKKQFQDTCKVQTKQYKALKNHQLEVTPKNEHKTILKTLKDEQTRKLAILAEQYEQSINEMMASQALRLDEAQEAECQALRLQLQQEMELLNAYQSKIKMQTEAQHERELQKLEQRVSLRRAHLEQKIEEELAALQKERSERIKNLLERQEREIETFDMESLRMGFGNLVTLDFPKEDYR

[2] = target: T2, Mitogen-activated protein kinase kinase kinase 6 (Homo sapiens) (UniProt O95382); assay: Selectivity interaction (KinomeScan (DiscoverX)) EUB0001619a MAP3K6; details: at 1 µM
T2 sequence (whole entry): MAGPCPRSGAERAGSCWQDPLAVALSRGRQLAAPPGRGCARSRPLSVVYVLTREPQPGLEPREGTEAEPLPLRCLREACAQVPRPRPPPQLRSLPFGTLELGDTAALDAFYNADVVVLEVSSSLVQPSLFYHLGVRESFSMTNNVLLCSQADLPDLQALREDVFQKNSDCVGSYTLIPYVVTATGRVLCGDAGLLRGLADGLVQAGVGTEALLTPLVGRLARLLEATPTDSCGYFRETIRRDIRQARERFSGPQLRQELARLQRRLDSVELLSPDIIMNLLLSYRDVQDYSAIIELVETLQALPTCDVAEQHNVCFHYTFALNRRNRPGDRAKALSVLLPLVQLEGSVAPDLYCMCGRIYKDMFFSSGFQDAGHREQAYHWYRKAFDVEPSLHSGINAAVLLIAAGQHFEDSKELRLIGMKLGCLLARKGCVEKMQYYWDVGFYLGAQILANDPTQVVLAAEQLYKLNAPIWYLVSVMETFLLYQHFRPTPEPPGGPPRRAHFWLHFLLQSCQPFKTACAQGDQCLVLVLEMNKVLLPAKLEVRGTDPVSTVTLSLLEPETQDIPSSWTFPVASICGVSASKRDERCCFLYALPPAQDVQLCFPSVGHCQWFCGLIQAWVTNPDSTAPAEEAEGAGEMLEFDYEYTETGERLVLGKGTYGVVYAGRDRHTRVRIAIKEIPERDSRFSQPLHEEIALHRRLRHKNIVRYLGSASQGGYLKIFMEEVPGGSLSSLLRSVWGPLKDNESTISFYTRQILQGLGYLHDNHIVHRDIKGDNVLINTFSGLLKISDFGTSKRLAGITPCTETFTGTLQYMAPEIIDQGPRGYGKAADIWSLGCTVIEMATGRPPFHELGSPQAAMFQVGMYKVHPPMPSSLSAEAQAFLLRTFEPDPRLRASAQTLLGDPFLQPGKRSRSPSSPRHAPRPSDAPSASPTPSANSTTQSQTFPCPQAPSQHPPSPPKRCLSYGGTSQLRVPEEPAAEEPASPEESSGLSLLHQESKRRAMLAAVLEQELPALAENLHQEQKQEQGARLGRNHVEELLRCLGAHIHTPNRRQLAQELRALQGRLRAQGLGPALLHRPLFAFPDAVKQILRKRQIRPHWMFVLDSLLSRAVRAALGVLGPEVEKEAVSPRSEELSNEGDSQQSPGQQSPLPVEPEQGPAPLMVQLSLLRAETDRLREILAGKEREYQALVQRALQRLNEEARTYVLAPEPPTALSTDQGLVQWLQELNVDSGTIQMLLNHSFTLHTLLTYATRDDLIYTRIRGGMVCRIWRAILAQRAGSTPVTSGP

[3] = target: T3, Tyrosine-protein kinase receptor TYRO3 (Homo sapiens) (UniProt Q06418); assay: Selectivity interaction (Ambit KINOMEscan and KiNATiv profiling in Jurkat cells) EUB0000090b TYRO3; format: cell-based; details: at 1 µM
T3 sequence (whole entry): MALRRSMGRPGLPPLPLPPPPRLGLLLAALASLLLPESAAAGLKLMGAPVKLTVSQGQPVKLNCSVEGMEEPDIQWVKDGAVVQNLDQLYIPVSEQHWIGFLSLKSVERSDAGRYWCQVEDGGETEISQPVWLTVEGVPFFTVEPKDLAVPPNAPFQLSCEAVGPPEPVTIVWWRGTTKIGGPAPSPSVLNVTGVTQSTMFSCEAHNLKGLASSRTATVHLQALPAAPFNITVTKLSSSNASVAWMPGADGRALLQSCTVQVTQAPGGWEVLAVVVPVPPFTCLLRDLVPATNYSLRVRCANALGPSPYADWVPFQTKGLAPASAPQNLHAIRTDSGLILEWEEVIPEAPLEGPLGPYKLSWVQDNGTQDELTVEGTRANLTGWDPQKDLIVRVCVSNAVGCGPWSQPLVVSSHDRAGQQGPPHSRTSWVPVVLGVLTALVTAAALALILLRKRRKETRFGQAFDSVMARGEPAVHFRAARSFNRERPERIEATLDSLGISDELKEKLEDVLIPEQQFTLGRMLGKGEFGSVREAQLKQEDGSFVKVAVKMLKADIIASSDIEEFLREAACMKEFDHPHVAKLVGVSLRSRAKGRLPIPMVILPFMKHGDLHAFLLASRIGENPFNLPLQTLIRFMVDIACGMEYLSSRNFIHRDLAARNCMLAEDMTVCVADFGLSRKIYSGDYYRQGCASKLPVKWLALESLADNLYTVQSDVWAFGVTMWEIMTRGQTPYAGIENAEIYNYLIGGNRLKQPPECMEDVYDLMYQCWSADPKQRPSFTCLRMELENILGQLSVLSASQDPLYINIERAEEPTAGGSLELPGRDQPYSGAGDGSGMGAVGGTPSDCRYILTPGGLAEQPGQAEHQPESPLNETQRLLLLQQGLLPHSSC

## C=CC(=O)Nc1cccc(C(=O)Nc2ccc(Nc3cc(-c4[nH]c(SC)nc4C)ccn3)cc2)c1
[1]; at 1 µM
  % of control: 95%
[1]; at 5 µM
  % of control: 72%

## N#Cc1cccc(-c2c[nH]c3ncnc(N4CCOCC4)c23)c1
[2]
  % of control: 57%

## CN(C)C/C=C/C(=O)Nc1ccc(C(=O)N2CCCC(Nc3ncc(Cl)c(-c4c[nH]c5ccccc45)n3)C2)cc1 (centres undefined)
[3]
  % of control: 95%
